The text below walks through data of patent US7276511B2, “Benzylamine derivative” (Zeria Pharmaceutical Co., Ltd., priority 2003, dated 2007).

The target of one experiment is NK-1 receptor (Homo sapiens, UniProt P25103). Nature of the experiment: NK-1 receptor-binding test ([3H]-Substance P, hNK1-CHO cells). Details: expressed in transfected cells; host or cells: CHO-K1 cells (ATCC: CCL-61), G418-resistant, hNK1-CHO. The procedure: 1. NK-1 Receptor-binding Test
1) Preparation of Human NK-1 Receptor Expression Cells
FuGene 6 transfection reagent (Boegringer Mannheim) (3 μL) was diluted in an F-12 culture broth (97 μL), and pCR3.1 plasmid to which human NK-1 receptor cDNA had been introduced (Invitrogen) (10 μL) was added thereto. The mixture was mixed and incubated for 15 minutes (transfection reagent). CHO-K1 cells (ATCC: CCL-61) were cultured for 24 hours, and the whole reagent prepared above was added to the cultured CHO-K1 cells ([…]). Subsequently, culture was performed in the presence of G418 (Stratagene), and the resistant cells were employed as cells into which human NK-1 receptor gene was introduced (hNK1-CHO).
2) Subcultivation of hNK1-CHO Cells
The hNK1-CHO cells were treated with trypsin-EDTA and subcultivated in an F-12 culture broth (containing 10% fetal bovine serum, 10 mM HEPES, 100 U/mL, penicillin, 100 μg/mL streptmycin, 400 μg/mL G418) in a 75-cm^2 flask (FALCON). Cells to be employed in the receptor-binding experiment were added to a 24-well plate (IWAKI) at 1×10^5 cells/well, and subcultured for 48 hours at 37° C. under 95% […] and 5% CO2.
3) Receptor-binding Experiment
When the hNK1-CHO cells became subconfluent on the 24-well plate, an F-12 culture broth (containing 10 mM HEPES and 0.1% fetal bovine serum) (450 μL), [^3H]-Substance P (Amersham, final concentration 0.5 nM), and a test compound were added to the cells, and the mixture was incubated for 40 minutes at 37° C. For the measurement of non-specific binding, L703606 (Sigma) was added instead of the test compound. After completion of incubation, the mixture was washed with ice-cooled phosphate buffered saline containing 0.1% fetal bovine serum, and the cells were lysed with 1N NaOH (0.5 mL). The lysate was transfered to a plastic vial containing UltimaGold MV (5 mL), and the radioactivity was determined by means of a liquid liquid scintillation counter (Packard, 2000CA).
Percent radioactive ligand-receptor binding inhibition of each test compound was calculated by use of the following equation, and IC50 (nM) was determined through pseudo-Hill analysis.
Percent inhibition (%)=[1−(C−A)/(B−A)]×100
A: Radioactivity attributed to non-specific binding
B: Radioactivity without test compound
C: Radioactivity with test compound

The target of experiment [1] is T1, Cloned Neurokinin Receptor Subtype 2 Human (Homo sapiens, UniProt P21452).
T1 construct: purchased Biosignal Packard; host or cells: CHO cells
T1 sequence (P21452 1-398): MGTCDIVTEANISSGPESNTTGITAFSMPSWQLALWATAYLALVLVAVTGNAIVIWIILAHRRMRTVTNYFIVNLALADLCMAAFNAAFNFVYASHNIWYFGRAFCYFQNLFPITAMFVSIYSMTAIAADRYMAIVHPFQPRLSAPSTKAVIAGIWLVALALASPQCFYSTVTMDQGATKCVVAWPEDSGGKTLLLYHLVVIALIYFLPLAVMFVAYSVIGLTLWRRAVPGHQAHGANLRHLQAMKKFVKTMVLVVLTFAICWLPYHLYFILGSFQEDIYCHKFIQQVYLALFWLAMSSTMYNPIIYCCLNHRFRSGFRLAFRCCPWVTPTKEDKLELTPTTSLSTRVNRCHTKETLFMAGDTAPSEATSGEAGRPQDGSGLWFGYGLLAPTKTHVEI
Nature of the experiment: NK-2 receptor-binding experiment ([3H]-SR48968, CHO cell membranes). The note with it: Table 4; inhibition of [3H]-SR48968 (0.85 nM) binding, pseudo-Hill analysis. The gist of the method:
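Membranes from CHO cells expressing cloned human NK-2 receptor incubated with [3H]-SR48968 (final 0.85 nM) and test compound in 20 mM HEPES, 50 min at 27° C. Bound radioactivity collected by filtration and counted by scintillation; IC50 from pseudo-Hill analysis of percent binding inhibition, nonspecific binding subtracted.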

[2] abbreviates: Table 4, inhibition of [3H]-Substance P (0.5 nM) binding to hNK1-CHO cells, pseudo-Hill analysis, read-out: NK-1.

SMILES strings stand for the structures. pIC50: −log10 of the molar value. Where a name gives a salt, the structure may show the parent alone. Read-outs that look alike come from different tables or passages of the source.

Chain of NK-1 receptor (P25103 whole entry): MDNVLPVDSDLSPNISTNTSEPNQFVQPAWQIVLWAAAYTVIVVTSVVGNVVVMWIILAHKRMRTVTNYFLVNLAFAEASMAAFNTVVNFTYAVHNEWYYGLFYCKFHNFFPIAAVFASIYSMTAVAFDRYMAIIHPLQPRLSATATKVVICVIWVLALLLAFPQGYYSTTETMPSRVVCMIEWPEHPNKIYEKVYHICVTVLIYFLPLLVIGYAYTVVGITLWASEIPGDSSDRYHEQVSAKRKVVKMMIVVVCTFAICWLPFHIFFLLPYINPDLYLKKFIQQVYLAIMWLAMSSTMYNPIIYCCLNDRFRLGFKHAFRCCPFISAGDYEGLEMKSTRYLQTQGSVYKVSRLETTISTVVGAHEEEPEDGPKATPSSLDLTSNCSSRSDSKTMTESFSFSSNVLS

With `CN(CC(CCN1CCC2(CC1)c1ccccc1C[S+]2[O-])(c1ccc(Cl)c(Cl)c1)N(C)C(=O)CC(c1ccccc1)c1ccccc1)C(=O)CC(F)(F)F` [Compound No. 1, N-{2-(3,4-dichlorophenyl)-2-[(3,3-diphenylpropionyl)-methylamino]-4-{spiro[benzo(c)thiophene-1(3H),4′-piperidine]-(2S)-oxide}-1′-yl-butyl}-3,3,3-trifluoro-N-methyl-propionamide hydrochloride], the pIC50 on NK-1 receptor (setting [2]) was 8.92; in experiment [1], 8.80.

Consider `CC(C)C(=O)N(C)CC(CCN1CCC2(CC1)c1ccccc1C[S+]2[O-])(c1ccc(Cl)c(Cl)c1)N(C)C(=O)CC(c1ccccc1)c1ccccc1` [Compound No. 2, N-{2-(3,4-dichlorophenyl)-2-[(3,3-diphenylpropionyl)-methylamino]-4-{spiro[benzo(c)thiophene-1(3H),4′-piperidine]-(2S)-oxide}-1′-yl-butyl}-N-methyl-isobutylamide hydrochloride], for which the figures for the pIC50 (at NK-1 receptor (setting [2]); in experiment [1]) were 8.37 and 8.68, respectively.

Take `CN(CC(CCN1CCC2(CC1)c1ccccc1C[S@+]2[O-])(c1ccc(Cl)c(Cl)c1)N(C)C(=O)NC(c1ccccc1)c1ccccc1)C(=O)C(F)(F)Cl` (stereo partly drawn) [Compound No. 4, N-{2-(3-benzohydryl-1-methylureido)-2-(3,4-dichlorophenyl)-4-{spiro[benzo(c)thiophene-1(3H),4′-piperidine]-(2S)-oxide}-1′-yl-butyl}-2-chloro-2,2-difluoro-N-methyl-acetamide hydrochloride]: the pIC50 on NK-1 receptor (setting [2]) is 8.47; in experiment [1], 8.82.

At NK-1 receptor, `CN(C[C@](CCCN1CCC2(CC1)c1ccccc1C[S@+]2[O-])(c1ccc(Cl)c(Cl)c1)N(C)C(=O)Oc1cccc(F)c1)C(=O)CC(F)(F)F` [Compound No. 634, 3-fluorophenyl{1-(3,3,3-trifluoro-N-methylpropanamido)-2-(S)-(3,4-dichlorophenyl)-5-[spiro(benzo(c)thiophene-(2S)-oxido-1(3H),4′-piperidin)-1′-yl]pentan-2-yl}methylcarbamate hydrochloride] had a pIC50 of 8.70.

Consider `COc1ccccc1OC(=O)N(C)[C@](CCCN1CCC2(CC1)c1ccccc1C[S@+]2[O-])(CN(C)C(=O)CC(F)(F)F)c1ccc(Cl)c(Cl)c1` [Compound No. 636, 2-methoxyphenyl{1-(3,3,3-trifluoro-N-methylpropanamido)-2-(S)-(3,4-dichlorophenyl)-5-[spiro(benzo(c)thiophene-(2S)-oxido-1(3H),4′-piperidin)-1′-yl]pentan-2-yl}methylcarbamate hydrochloride], for which the pIC50 on NK-1 receptor is 9.05.

The compound `COc1cccc(OC(=O)N(C)[C@](CCCN2CCC3(CC2)c2ccccc2C[S@+]3[O-])(CN(C)C(=O)CC(F)(F)F)c2ccc(Cl)c(Cl)c2)c1` [Compound No. 637, 3-methoxyphenyl{1-(3,3,3-trifluoro-N-methylpropanamido)-2-(S)-(3,4-dichlorophenyl)-5-[spiro(benzo(c)thiophene-(2S)-oxido-1(3H), 41-piperidin)-1′-yl]pentan-2-yl}methylcarbamate hydrochloride] gave a pIC50 on NK-1 receptor of 8.77.

As to `CN(C[C@](CCCN1CCC2(CC1)c1ccccc1C[S@+]2[O-])(c1ccc(Cl)c(Cl)c1)N(C)C(=O)Oc1ccccc1F)C(=O)CC(F)(F)F` [Compound No. 638, 2-fluorophenyl{1-(3,3,3-trifluoro-N-methylpropanamido)-2-(S)-(3,4-dichlorophenyl)-5-[spiro(benzo(c)thiophene-(2S)-oxido-1(3H),4′-piperidin)-1′-yl]pentan-2-yl}methylcarbamate hydrochloride], the pIC50 at NK-1 receptor was 8.22.

Consider `CN(C[C@](CCCN1CCC2(CC1)c1ccccc1C[S@+]2[O-])(c1ccc(Cl)c(Cl)c1)N(C)C(=O)Oc1ccc(F)cc1)C(=O)CC(F)(F)F` [Compound No. 639, 4-fluorophenyl{1-(3,3,3-trifluoro-N-methylpropanamido)-2-(S)-(3,4-dichlorophenyl)-5-[spiro(benzo(c)thiophene-(2S)-oxido-1(3H),4′-piperidin)-1′-yl]pentan-2-yl}methylcarbamate hydrochloride], for which the pIC50 at NK-1 receptor was 8.40.

`COc1ccc(OC(=O)N(C)[C@](CCCN2CCC3(CC2)c2ccccc2C[S@+]3[O-])(CN(C)C(=O)CC(F)(F)F)c2ccc(Cl)c(Cl)c2)cc1` [Compound No. 640, 4-methoxyphenyl{1-(3,3,3-trifluoro-N-methylpropanamido)-2-(s)-(3,4-dichlorophenyl)-5-[spiro(benzo(c)thiophene-(2S)-oxido-1(3H),4′-piperidin)-1′-yl]pentan-2-yl}methylcarbamate hydrochloride]: the pIC50 at NK-1 receptor is 8.22.

`CN(C[C@](CCCN1CCC2(CC1)c1ccccc1C[S@+]2[O-])(c1ccc(Cl)c(Cl)c1)N(C)C(=O)Oc1ccccc1)C(=O)C(F)(F)F` [Compound No. 642, phenyl{1-(2,2,2-trifluoro-N-methylacetamide)-2-(S)-(3,4-dichlorophenyl)-5-[spiro(benzo(c)thiophene-(2S)-oxido-1(3H),4′-piperidin)-1′-yl]pentan-2-yl}methylcarbamate hydrochloride] had a pIC50 on NK-1 receptor of 8.43.

On NK-1 receptor, `Cc1ccc(OC(=O)N(C)[C@](CCCN2CCC3(CC2)c2ccccc2C[S@+]3[O-])(CN(C)C(=O)CC(F)(F)F)c2ccc(Cl)c(Cl)c2)cc1` [Compound No. 652, 4-tolyl{1-(3,3,3-trifluoro-N-methylpropanamido)-2-(S)-(3,4-dichlorophenyl)-5-[spiro(benzo(c)thiophene-(2S)-oxido-1(3H),4′-piperidin)-1′-yl]pentan-2-yl}methylcarbamate hydrochloride] showed a pIC50 of 8.57.

Compound `CN(C[C@](CCCN1CCC2(CC1)c1ccccc1C[S@+]2[O-])(c1ccc(Cl)c(Cl)c1)N(C)C(=O)Oc1cccc(Cl)c1Cl)C(=O)CC(F)(F)F` [Compound No. 653, 2,3-dichlorophenyl{1-(3,3,3-trifluoro-N-methylpropanamido)-2-(S)-(3,4-dichlorophenyl)-5-[spiro(benzo(c)thiophene-(2S)-oxido-1(3H),4′-piperidin)-1′-yl]pentan-2-yl}methylcarbamate hydrochloride] gave a pIC50 at NK-1 receptor of 8.80.

In turn, `CN(C[C@](CCCN1CCC2(CC1)c1ccccc1C[S@+]2[O-])(c1ccc(Cl)c(Cl)c1)N(C)C(=O)Oc1ccc(Cl)c(Cl)c1)C(=O)CC(F)(F)F` [Compound No. 654, 3,4-dichlorophenyl{1-(3,3,3-trifluoro-N-methylpropanamido)-2-(S)-(3,4-dichlorophenyl)-5-[spiro(benzo(c)thiophene-(2S)-oxido-1(3H),4′-piperidin)-1′-yl]pentan-2-yl}methylcarbamate hydrochloride] gave a pIC50 on NK-1 receptor of 8.52.

Regarding `CN(C[C@](CCCN1CCC2(CC1)c1ccccc1C[S@+]2[O-])(c1ccc(Cl)c(Cl)c1)N(C)C(=O)Oc1ccc(F)c(F)c1)C(=O)CC(F)(F)F` [compound 655, 3,4-difluorophenyl{1-(3,3,3-trifluoro-N-methylpropanamido)-2-(S)-(3,4-dichlorophenyl)-5-[spiro(benzo(c)thiophene-(2S)-oxido-1(3H),4′-piperidin)-1′-yl]pentan-2-yl}methylcarbamate hydrochloride], the pIC50 at NK-1 receptor was 8.89.
